The target in assay [1] is T1, GCN2 (Homo sapiens, UniProt Q9P2K8). Description: GCN2 enzyme assay (TR-FRET Lanthascreen, GFP-eIF2alpha phosphorylation). To be noted: 10 μM ATP, 80 nM GFP-eIF2a, 30 nM GCN2. The format is biochemical. The essentials:
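Phosphorylation of GFP-eIF2alpha (80 nM) by GCN2 run at room temperature with 10 μM ATP. After EDTA quench, product quantified by Lanthascreen TR-FRET (antibody–GFP complex, 340 nm excitation).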
Target sequence in this assay (Q9P2K8 whole entry, species assumed): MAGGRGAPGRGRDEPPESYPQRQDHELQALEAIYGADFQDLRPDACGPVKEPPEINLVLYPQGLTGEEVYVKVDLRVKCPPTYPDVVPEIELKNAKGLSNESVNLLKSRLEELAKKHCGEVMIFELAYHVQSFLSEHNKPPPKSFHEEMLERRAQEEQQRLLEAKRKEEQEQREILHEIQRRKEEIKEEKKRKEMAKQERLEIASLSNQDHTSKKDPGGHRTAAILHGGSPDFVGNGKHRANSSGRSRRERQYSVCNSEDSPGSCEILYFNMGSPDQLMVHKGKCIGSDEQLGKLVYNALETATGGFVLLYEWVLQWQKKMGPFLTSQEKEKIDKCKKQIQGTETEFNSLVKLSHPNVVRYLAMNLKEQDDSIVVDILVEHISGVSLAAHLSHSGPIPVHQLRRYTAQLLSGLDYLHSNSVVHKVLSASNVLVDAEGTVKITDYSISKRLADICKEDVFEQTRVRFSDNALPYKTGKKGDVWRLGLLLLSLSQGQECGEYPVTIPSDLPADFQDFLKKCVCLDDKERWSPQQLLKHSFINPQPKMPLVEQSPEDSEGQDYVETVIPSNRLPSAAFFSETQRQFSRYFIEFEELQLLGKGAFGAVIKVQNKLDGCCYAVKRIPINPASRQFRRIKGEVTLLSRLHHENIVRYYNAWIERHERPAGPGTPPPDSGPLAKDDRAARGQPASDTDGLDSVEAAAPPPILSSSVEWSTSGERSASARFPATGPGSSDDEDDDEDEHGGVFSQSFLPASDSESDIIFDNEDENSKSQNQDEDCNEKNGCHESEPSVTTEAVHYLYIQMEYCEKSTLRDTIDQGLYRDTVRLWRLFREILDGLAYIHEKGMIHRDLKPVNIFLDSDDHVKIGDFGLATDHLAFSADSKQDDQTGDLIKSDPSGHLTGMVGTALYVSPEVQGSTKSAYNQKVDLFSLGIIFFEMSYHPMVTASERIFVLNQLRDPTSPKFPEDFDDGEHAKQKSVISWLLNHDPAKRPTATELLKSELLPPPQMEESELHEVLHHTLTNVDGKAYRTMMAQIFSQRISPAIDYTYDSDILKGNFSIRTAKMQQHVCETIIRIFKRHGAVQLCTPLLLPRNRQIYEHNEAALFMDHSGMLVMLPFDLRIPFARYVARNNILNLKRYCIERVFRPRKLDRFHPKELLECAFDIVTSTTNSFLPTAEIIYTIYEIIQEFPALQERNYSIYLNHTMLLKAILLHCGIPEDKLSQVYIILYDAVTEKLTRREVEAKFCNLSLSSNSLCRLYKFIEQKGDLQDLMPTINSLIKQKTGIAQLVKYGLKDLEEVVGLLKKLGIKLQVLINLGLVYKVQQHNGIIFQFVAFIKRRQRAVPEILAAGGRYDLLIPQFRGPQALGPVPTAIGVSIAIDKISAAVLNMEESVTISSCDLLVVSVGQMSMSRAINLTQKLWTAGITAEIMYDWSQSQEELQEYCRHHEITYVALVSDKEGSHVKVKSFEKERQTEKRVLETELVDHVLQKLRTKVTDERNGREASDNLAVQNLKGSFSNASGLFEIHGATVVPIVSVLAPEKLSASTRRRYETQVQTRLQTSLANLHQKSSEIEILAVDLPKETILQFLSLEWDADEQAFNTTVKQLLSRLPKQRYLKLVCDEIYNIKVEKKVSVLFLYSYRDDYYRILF
In general terms: TR-FRET usually uses a lanthanide donor and a delayed reading to cut background.

Another assay concerns the target GSK3α(h) (Homo sapiens, UniProt P49840). Description: GSK3α radiometric kinase assay (33P-ATP, phospho GS2 peptide). The class given is biochemical. The note with it: read-out: IC50 GSK3α (enzyme assay). Put shortly: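 Human GSK3α incubated with 20 μM phospho-GS2 peptide in 8 mM MOPS pH 7,0, 10 mM Mg-acetate and [γ-33P]ATP (concentration as required), started with MgATP. After 40 minutes at room temperature, stopped with phosphoric acid; 33P incorporation measured by filtermat spotting and scintillation counting.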

A further assay deals with GSK3β(h) (Homo sapiens, UniProt P49841). As to the kind of experiment: GSK3β radiometric kinase assay (33P-ATP, phospho GS2 peptide). The class given is biochemical. To be noted: read-out: IC50 GSK3β (enzyme assay). The essentials:
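Human GSK3β in 8 mM MOPS pH 7,0, 0,2 mM EDTA, 10 mM Mg-acetate with 20 μM phospho-GS2 peptide; the reaction was started with [γ-33P]MgATP at an unstated level. After 40 min at room temperature it was stopped with phosphoric acid, and the peptide was captured on P30 filtermat for scintillation counting.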

Assay [2] has as its target T1, GCN2. As to the kind of experiment: Cellular assay of GCN2 activity (phospho-eIF2alpha immunocytochemistry after tryptophanol). The format is cell-based. The arrangement: endogenous in cells; host or cells: U2OS. The note with it: Human U2OS cells, 2 h compound, 600 μM tryptophanol 30 min. Put shortly:
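Readout in human U2OS cells: compound pretreatment 2 h, then tryptophanol (600 μM final) for 30 min to trigger GCN2 signalling. Fixed, permeabilised cells quantified by immunocytochemistry for phosphorylation, normalised to DMSO controls as % effect; IC50 from concentration-response.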
Target sequence in this assay (Q9P2K8 whole entry): as the sequence (Q9P2K8 whole entry, species assumed) above

For three compounds, IC50 results are on record in patent publication US9855268B2, “Triazolo[4,5-d]pyrimidine derivatives” (Merck Patent GmbH, priority 2013, dated 2018).

Sequence of GSK3β(h) (P49841 whole entry): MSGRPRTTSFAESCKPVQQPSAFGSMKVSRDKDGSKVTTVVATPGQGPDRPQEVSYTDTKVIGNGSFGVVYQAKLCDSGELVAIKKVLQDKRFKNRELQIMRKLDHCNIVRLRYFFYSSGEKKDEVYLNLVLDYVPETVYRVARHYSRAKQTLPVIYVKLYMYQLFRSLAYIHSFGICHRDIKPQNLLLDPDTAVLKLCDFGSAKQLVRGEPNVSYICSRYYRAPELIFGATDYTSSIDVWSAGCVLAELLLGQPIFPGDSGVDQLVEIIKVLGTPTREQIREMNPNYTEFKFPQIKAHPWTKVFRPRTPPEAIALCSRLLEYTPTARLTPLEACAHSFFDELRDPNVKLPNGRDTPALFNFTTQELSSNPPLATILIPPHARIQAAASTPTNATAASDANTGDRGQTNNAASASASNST
Sequence of GSK3α(h) (P49840 whole entry): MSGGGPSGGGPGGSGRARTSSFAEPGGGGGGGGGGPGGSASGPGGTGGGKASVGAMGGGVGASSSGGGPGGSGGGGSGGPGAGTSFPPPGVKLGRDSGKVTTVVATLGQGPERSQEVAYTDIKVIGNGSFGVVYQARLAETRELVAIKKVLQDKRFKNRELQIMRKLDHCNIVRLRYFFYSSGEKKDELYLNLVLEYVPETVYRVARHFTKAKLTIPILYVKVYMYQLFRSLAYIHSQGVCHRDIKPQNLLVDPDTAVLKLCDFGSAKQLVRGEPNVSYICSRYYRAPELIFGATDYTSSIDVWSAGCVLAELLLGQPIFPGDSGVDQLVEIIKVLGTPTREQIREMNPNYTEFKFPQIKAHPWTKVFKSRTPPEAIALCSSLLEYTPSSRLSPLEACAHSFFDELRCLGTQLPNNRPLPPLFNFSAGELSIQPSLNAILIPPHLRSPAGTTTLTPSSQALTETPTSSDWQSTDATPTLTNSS

With `CC(C)(CCO)Oc1ccc(-n2nnc3cnc(N[C@@H]4CC[C@@H](C(N)=O)C4)nc32)cc1` [A278, (1R,3R)-3-{3-[4-(3-hydroxy-1,1-dimethyl-propoxy)-phenyl]-3H-[1,2,3]triazolo[4,5-d]pyrimidin-5-ylamino}-cyclopentanecarboxylic acid amide], the 50% inhibitory concentration (IC50) (as a rule, the point on the concentration scale where inhibition reaches its midpoint) is under 1000 nM against GCN2 [1], under 1000 nM on GSK3α(h), under 1000 nM at GSK3β(h) and 1000 to 5000 nM at GCN2 [2].

For `CCOc1ccc(-n2nnc3cnc(N[C@@H]4CC[C@@H](C(=O)NNC(C)=O)C4)nc32)cc1` [A280, (1R,3R)-3-[3-(4-ethoxy-phenyl)-3H-[1,2,3]triazolo[4,5-d]pyrimidin-5-ylamino]-cyclopentanecarboxylic acid N′-acetyl-hydrazide], the IC50 is under 1000 nM against GCN2 [1], under 1000 nM on GSK3α(h), under 1000 nM on GSK3β(h) and 1000 to 5000 nM at GCN2 [2].

`CCOc1ccc(-n2nnc3cnc(N[C@@H]4CC[C@@H](C(=O)NN)C4)nc32)cc1` [A282, (1R,3R)-3-[3-(4-ethoxy-phenyl)-3H-[1,2,3]triazolo[4,5-d]pyrimidin-5-ylamino]-cyclopentanecarboxylic acid hydrazide]: the half-inhibitory concentration (IC50) was under 1000 nM at GCN2 [1], under 1000 nM at GSK3α(h), under 1000 nM at GSK3β(h) and 1000 to 5000 nM at GCN2 [2].
